Experimental findings from article PMC12193109, “Bioprospecting for Anti-Kinetoplastid Drug Discovery from Aloysia citrodora Essential Oil” (International Journal of Molecular Sciences, 2025) are described below.

One series has as its system T. cruzi epimastigotes. Kind of series: In vitro trypanocidal activity on T. cruzi epimastigotes (alamarBlue). The series is classed as cell-based, Trypanosoma cruzi. As to conditions: 72 h; for IC50: Trypanosoma cruzi. Here is the method:
In a 96-well plate, a serial dilution of the tested compounds was performed in the liver infusion tryptose medium supplemented with 10% heat-inactivated fetal bovine serum. Later, 100 µL of 5 × 10^5 cells/mL of epimastigotes was added to each well. Afterwards, 20 µL of alamarBlue® was added to each well, and the plate was maintained at 26 °C for 72 h.
(§1) The cytotoxicity effect of the tested compounds was conducted using macrophages of the murine cell line J774.A1 (American Type Culture Collection #TIB-67) as previously described. The cells were maintained in the DMEM medium at 37 °C in a 5% CO2 humidified incubator. All the plates containing alamarBlue® were analyzed using the plate reader EnSpire Multimode Plate Reader® at excitation and emission wavelengths of 570 and 585 nm, respectively (PerkinElmer, ThermoFisher Scientific, Madrid, Spain). The IC50 (concentrations able to inhibit 50% of parasites), IC90 (concentrations able to inhibit 90% of parasites), and CC50 (concentration able to inhibit 50% of murine macrophages) values were determined for each compound by nonlinear regression using the GraphPad Prism 9 software.

Series [1] can be described thus: In vitro leishmanicidal activity on L. amazonensis promastigotes (Alamar Blue). In kind it is cell-based, Leishmania amazonensis. As to conditions: mouse; CC50 J774.A1 macrophages / IC50 L. amazonensis promastigotes; read-out: Selectivity SI (CC50/IC50), promastigotes. Here is the method: (§2) The assay was conducted using the Alamar Blue® method as previously described. […] In 96-well microtiter plates (Corning^TM, Corning, NY, USA), serial dilutions of the citral derivative were first prepared, and later 10^6 parasites/mL were added into each well. Subsequently, 10% Alamar Blue® was added to the entire plate. The plates were incubated for 72 h at 26 °C. The cytotoxicity effect of the tested compounds was conducted using macrophages of the murine cell line J774.A1 (American Type Culture Collection #TIB-67) as previously described. The cells were maintained in the DMEM medium at 37 °C in a 5% CO2 humidified incubator. […] The IC50 (concentrations able to inhibit 50% of parasites), IC90 (concentrations able to inhibit 90% of parasites), and CC50 (concentration able to inhibit 50% of murine macrophages) values were determined for each compound by nonlinear regression using the GraphPad Prism 9 software.

Series [2] concerns L. amazonensis promastigotes. The description is as above. Conditions: 72 h, promastigotes, 72 h, ± SD. The series is classed as cell-based, Leishmania amazonensis. Here is the method:
as §2

Series [3] can be described thus: Cytotoxicity on murine macrophages. Conditions: mouse, ± SD. The series is classed as cell-based. Here is the method: as §1
Series [4] can be described thus: In vitro leishmanicidal activity on L. amazonensis intracellular amastigotes. Conditions: mouse; CC50 J774.A1 macrophages / IC50 L. amazonensis amastigotes; read-out: Selectivity SI (CC50/IC50), amastigotes. The series is classed as cell-based, Leishmania amazonensis.
For series [5], the system named is L. amazonensis intracellular amastigotes. The description is as above. In kind it is cell-based, Leishmania amazonensis. Conditions: Leishmania amazonensis; intracellular amastigotes; ± SD.
The test system of series [6] is L. amazonensis promastigotes. As to the kind of experiment: Mitochondrial membrane potential (JC-1 staining). The series is classed as cell-based, Leishmania amazonensis. As to conditions: IC90, 24 h, JC-1 red/green fluorescence ratio. Here is the method:
The effect of compound 9 to modulate cell features was studied in the L. amazonensis parasites using various specific commercial kits. Parasite cells were incubated with the compound at the previously calculated IC90 for 24 h. Subsequently, cells were washed and submitted to different treatments as mentioned by the manufacturer’s instructions. In all the assays, the plate reader EnSpire Multimode Plate Reader® (PerkinElmer, ThermoFisher Scientific, Madrid, Spain) and/or the image base system fluorescence microscope EVOS M5000 (version 1.5.1500.493) were used for fluorescence intensity quantification. […]
To evaluate the damage caused by the tested compound on mitochondrial function, mitochondrial membrane potential, the adenosine triphosphate (ATP) level, and reactive oxygen species (ROS) were measured as follows: The evaluation of the mitochondrial membrane potential was carried out using the JC-1 assay. JC-1 is a specific stain of the mitochondria which fluorescence emission depends on the mitochondrial membrane potential. In healthy mitochondria, JC-1 agglomerates and emits red fluorescence, while unhealthy ones remain as a monomer and emit green fluorescence. […]

Series [7] deals with L. amazonensis. As to the kind of experiment: ATP level (CellTiter-Glo luminescence). The series is classed as cell-based, Leishmania amazonensis. Conditions: IC90, 24 h. Here is the method: (§3) The effect of compound 9 to modulate cell features was studied in the L. amazonensis parasites using various specific commercial kits. Parasite cells were incubated with the compound at the previously calculated IC90 for 24 h. Subsequently, cells were washed and submitted to different treatments as mentioned by the manufacturer’s instructions. In all the assays, the plate reader EnSpire Multimode Plate Reader® (PerkinElmer, ThermoFisher Scientific, Madrid, Spain) and/or the image base system fluorescence microscope EVOS M5000 (version 1.5.1500.493) were used for fluorescence intensity quantification. For each protocol, images of representative population cells were obtained using the inverted confocal microscope Leica DMI 4000 B with the Leica Application Suite X 3.5.5.19976 software and Leica HC PL APO 63x/1.40 OIL CS2 Objective (Barcelona, Spain).
The adenosine triphosphate (ATP) level was measured using the CellTiter-Glo Luminescent Cell Viability Assay (Promega, Madrid, Spain). The mitochondrion in which most cellular oxidations occur is considered the main source of cell ATP, and any damage and/or malfunction of this organelle generate the depletion of ATP levels.

In series [8] the test system is L. amazonensis. Kind of series: Intracellular ROS (CellROX Deep Red). The series is classed as cell-based, Leishmania amazonensis. Conditions: IC90, 24 h. Here is the method:
as §3, with “Parasite” for “The effect of compound 9 to modulate cell features was studied in the L. amazonensis parasites using various specific commercial kits. Parasite”, “Spain). The measure of reactive oxygen species (ROS) was measured after treatment for 24 h using the CellROX® Deep Red fluorescent probe (Invitrogen, Madrid, Spain). The mitochondrion constitute an essential organelle to neutralize the reactive oxygen species; the malfunction of this organelle would generate an imbalance between the antioxidants and the reactive oxygen.” for “Spain).”

The test system of series [9] is L. amazonensis. As to the kind of experiment: Plasma membrane permeability (SYTOX Green). As to conditions: IC90, 24 h. In kind it is cell-based, Leishmania amazonensis. Here is the method: as §3
SYTOX^TM Green (Life Technologies, Madrid, Spain), a cell-impermeable DNA-binding stain, was used to evaluate membrane permeability and integrity. The assay was conducted as detailed in the manufacture instructions and as previously described.

The test system of series [10] is L. amazonensis promastigotes. As to the kind of experiment: Double stain assay (Hoechst 33342/PI) for programmed cell death. In kind it is cell-based, Leishmania amazonensis. Conditions: IC90, 24 h. Here is the method: as §3
To identify the type of cell death occurring in treated Leishmania amazonensis, the Hoechst 33342 and propidium iodide (PI) dyes were employed. […] Post-treatment, three distinct staining patterns could be observed: blue fluorescence indicating cells […]; violet coloration resulting from the merge of blue and red fluorescence, representing late apoptotic cells; and red fluorescence corresponding to dead cells.

The mark [11] stands for this setting: Leishmania amazonensis, Alamar Blue, read-out: L. amazonensis IC50.
The mark [12] stands for this setting: Leishmania amazonensis, read-out: L. amazonensis Promastigotes IC50.

Read-outs that look alike come from different tables or passages of the source.

Turning to `O=C(Cn1ccnc1[N+](=O)[O-])NCc1ccccc1` [Benznidazole, reference compound], the IC50 with T. cruzi epimastigotes was found to be 1.81 µM; with T. cruzi epimastigotes (alamarBlue, ± SD), 1.81 ± 0.5 mg/L.

For the compound `CC(C)=CCCC(C)=CC=O` [Compound 1, 3,7-dimethyl-2,6-octadienal], the selectivity ratio in [1] came out at 6.97. The 50% inhibitory concentration (IC50) in series [2] (setting [11]) is 10.9 mg/L; with T. cruzi epimastigotes, 12.9 µM; in the series with T. cruzi epimastigotes (alamarBlue, ± SD), 24.8 mg/L. For the same compound, in series [2] (Alamar Blue, listed as Citral (1)), the “L. amazonensis IC50” value came to 8.47 ± 4.59 mg/L. Also, in the series on T. cruzi epimastigotes (alamarBlue, ± SD, listed as Citral (1)), the “T. cruzi IC50” value was determined as 12.90 ± 1.92 mg/L. In addition, in [3] (J774.A1 macrophage cell line), the cytotoxic concentration (CC50) is more than 300 µM.

As for `CC(C)=CCC/C(C)=C/C=NO` [Compound 2, citral oxime], the figures for the selectivity ratio in series [1] and in series [4] were 12.6 and 9.39, respectively. Moreover, the IC50 was determined as 40.8 ± 19.4 µM in series [2] (setting [12]) and 56.9 ± 19.1 µM in series [5]. This compound also returned a CC50 in series [3] (J774.A1 macrophage cell line) of more than 300 µM.

For the compound `CC(=O)ON=C/C=C(\C)CCC=C(C)C` [Compound 3, citral oxime acetate], in series [2] (setting [12]), the IC50 was more than 100 µM.

With `CCCC(=O)ON=C/C=C(\C)CCC=C(C)C` [Compound 4, citral oxime butyrate], the concentration for half-maximal inhibition (IC50) in series [2] (setting [12]) is more than 100 µM.

For `CC(C)=CCC/C(C)=C/C=NOC(=O)c1ccccc1` [Compound 5, citral oxime benzoate], in [1], the selectivity ratio was determined as 10.4. The IC50 in series [2] (setting [12]) turned out to be 29.3 ± 8.07 µM. In series [3] (J774.A1 macrophage cell line), the CC50 was more than 300 µM.

With `CC(C)=CCC/C(C)=C/C=NOC(=O)c1ccc([N+](=O)[O-])cc1` [Compound 6, citral oxime 4-nitrobenzoate], the selectivity ratio in series [1] was found to be 9.25. For the same compound, the IC50 in [2] (setting [12]) was found to be 34.2 ± 14.4 µM. In series [3] (J774.A1 macrophage cell line), this compound registered a CC50 of more than 300 µM.

On to `CC(C)=CCC/C(C)=C/C=NNC(N)=O` [Compound 7, citral semicarbazone], for which the selectivity ratio in series [1] turned out to be 9.29. For the same compound, the IC50 in [2] (setting [12]) amounted to 43.8 ± 12.1 µM. In addition, the half-maximal cytotoxic concentration (CC50) in series [3] (J774.A1 macrophage cell line) was more than 300 µM.

Turning to `CC(C)=CCCC(C)=CC=NNc1ccc([N+](=O)[O-])cc1[N+](=O)[O-]` [Compound 9, citral 2,4-dinitrophenylhydrazone], the selectivity ratio was 2.98 in series [1] and 1.47 in series [4]. Further, the IC50 in [2] (setting [12]) turned out to be 10.6 ± 4.78 µM; in series [5], 21.4 ± 0.65 µM. In series [3] (murine macrophages J774.A1), this compound returned a cytotoxic concentration (CC50) of 31.6 ± 1.96 µM. The “Decrease of mitochondrial membrane potential in comparison with untreated cells” value in series [6] is on record as 50%. Further, the “Reduction in ATP production in comparison to the negative controls” value in the series with L. amazonensis [7] was 46.35%. Besides, the “Intracellular ROS level (in words)” value in the series on L. amazonensis [8] was “significant increase in emitted fluorescence”. Further, the “Effect on plasma membrane permeability (in words)” value with L. amazonensis [9] is “can affect the cell’s membrane permeability”. In addition, the “Type of cell death (in words)” value in series [10] is given as “induction of mitochondrial-dependent apoptosis”.

`CCCCCCCCCCCCCCCCOP(=O)([O-])OCC[N+](C)(C)C` [Miltefosine, reference compound]: the figures for the selectivity ratio in series [1] and in series [4] were 11.2 and 23.1, respectively. For the same compound, the figures for the half-maximal inhibitory concentration (IC50) in series [2] (setting [11]), in series [2] (read-out: L. amazonensis Promastigotes IC50) and in series [5] were 2.64 ± 0.09 mg/L, 2.64 µM and 3.12 ± 0.3 µM, respectively. The compound further registered a CC50 in series [3] (J774.A1 macrophage cell line) of 72.2 ± 8.85 µM. Moreover, the “Decrease of mitochondrial membrane potential in comparison with untreated cells” value in [6] amounted to 75%. In addition, the “Reduction in ATP production in comparison to the negative controls” value with L. amazonensis [7] stood at 74.11%. Moreover, the “Effect on plasma membrane permeability (in words)” value with L. amazonensis [9] is reported as “greater degree of damage to membrane permeability compared to compound 9”.
